According to patent US20220096592A1, “PIC1 VARIANTS WITH IMPROVED SOLUBILITY AND METHODS OF USING THE SAME” (priority 2019, published 2022):

Tests used:
Type in all cases: cell-based
[1] = system: purified human neutrophils; test: NETosis assay (immune complex activated serum and H2O2; PicoGreen free DNA, fluorescence microscopy); details: neutrophils stimulated with immune complexes, FIG. 5B third row
Procedure: NETosis assays with immune complexes were performed as previously described. Briefly, normal human serum was stimulated with ovalbumin-antiovalbumin immune complexes in GVBS^++ for 30 minutes at 37° C. This mixture along with 0.05% H2O2 was then added to purified human neutrophils resuspended in RPMI with or without sarcosine variants (2 mM), allowing NETosis to occur. Quantitation of free DNA released from the neutrophils was performed using PicoGreen. Slides were stained with DAPI (Southern Biotech, Birmingham, Ala.). The following antibodies were used to visualize formation of NETs: • (i) mouse anti-elastase (Invitrogen, Carlsbad, Calif.) as a primary antibody with the secondary goat anti-mouse antibody Alexa Fluor 568 (Novus Biologicals, Centennial, Colo.) and • (ii) rabbit anti-histone H3 (Abcam, Cambridge Mass.) with goat anti-rabbit antibody Alexa Fluor 488 (Novus Biologicals). Fluorescence microscopy using an Olympus BX53 microscope was performed to visualize NETs.
The peptide variants were tested for inhibition of NETosis. In this assay, purified human neutrophils were stimulated with normal human serum activated with ovalbumin-antiovalbumin immune complexes and hydrogen peroxide. Free DNA expressed from the neutrophils was then measured in a PicoGreen assay. […] Direct visualization of neutrophil extracellular trap (NET) formation by fluorescence microscopy was used to confirm the above NETosis results with the 18 variant. Human neutrophils were purified and stimulated on glass slides then stained with DAPI to visualize DNA and probed with anti-neutrophil elastase (αNE) and anti-histone H3 (αhistone), as previously described. […] Fluorescence microscopy visualization of NETs confirmed the findings seen for quantitative measurements of free DNA.

[2] = system: C5a generation; test: C5a ELISA of supernatant, antibody-sensitized human platelets in normal human serum
Procedure: (§1) For experiments sensitizing platelets with human anti-platelet antibody, purified platelets were treated with 4% ITP sera for 15 minutes at 30° C. before adding 2% normal human complement sufficient sera and incubating for 30 minutes at 37° C. For samples containing PIC1, sera and PIC1 were pre-incubated for 5 minutes before combining with sensitized platelets. Samples were then spun and supernatant was removed for C5a analysis by ELISA. A C5a ELISA kit (R&D Systems) was used per manufacturer's instructions. The cells were washed once with GVBS^−− and once with water to lyse the platelets. The remaining cell pellet was treated with 25 mM methylamine for 1 hour at 37° C., spun, and the supernatant was analyzed for iC3b by ELISA. The ELISA for iC3b was performed as previously described, utilizing a goat anti-human C3 antibody (Complement Technology, Tyler, Tex.) for capture, a mouse anti-human iC3b antibody (Quidel, San Diego, Calif.) for probing, and a goat anti-mouse HRP (Sigma-Aldrich, St Louis, Mo.) for detection.
Plasma recovered from these experiments was then assayed for the pro-inflammatory anaphylatoxin C5a by ELISA.

[3] = system: human platelets; test: viability of antibody-sensitized human platelets in normal human serum (Presto Blue)
Procedure: For in vitro experiments, platelets were stained with PrestoBlue Cell Viability Reagent as per manufacturer's recommendations. For in vivo experiments, platelets were stained with PKH26 Red Fluorescent Cell Dye as per manufacturer's recommendations.
as §1
Cell viability of the platelets was measured by utilizing the vital dye, Presto Blue. […] These effects can be largely reversed in the presence of a classical complement pathway inhibitor.

Substance: H2N-IALILEPICCQERAA-dPEG24 (H-IALILEPICCQERAA-dPEG24; cysteine pairing not given here) [PA-dPEG24, 15-amino acid PEGylated peptide, 24 PEG moieties at the C-terminus]
- NET formation by fluorescence microscopy [1]: dramatic reduction in NETs
- inhibition of C5a generation, in words ([2]; 1.5 mM, P=0.028): Significant inhibition of C5a generation
- decrease of C5a generation ([2]; 3.0 mM, P=0.006): 44%
- C5a generation, dose response ([2]; sensitizing antibody and NHS, increasing concentrations, FIG. 6B): dose-dependently inhibited C5a generation
- increase in platelet viability, in words ([3]; 1.5 mM, P=0.031): Significant increases in platelet viability
- increase in platelet viability ([3]; 3.0 mM, P=0.003): 53%
- platelet viability, dose response ([3]; sensitizing antibody and NHS, increasing concentrations, FIG. 6C): Platelet viability dose-dependently increased
